Experimental data as given in US4120864A, “1,2,4-4H-triazole derivatives” (Rohm and Haas Company, priority 1972, dated 1978).
Counter-ions that a name gives are not always drawn. Like-named read-outs stand apart in the source and are kept apart here.

Columns and labels:
[1] = test system: wheat leaf rust, Puccinia recondita; assay: whole plant or invertebrate; format: in vivo; details: foliar; for pest or weed control at 280.212 g/ha: read-out: % Control (without rain), foliar, 0.25 lb.; for pest or weed control at 1120.85 g/ha: read-out: % Control (without rain), foliar, 1 lb.
[2] = test system: wheat leaf rust, Puccinia recondita; assay: whole plant or invertebrate; format: in vivo; details: foliar; for pest or weed control at 280.212 g/ha: read-out: % Control (with 1" of rain), foliar, 0.25 lb., 1" of rain; for pest or weed control at 1120.85 g/ha: read-out: % Control (with 1" of rain), foliar, 1 lb., 1" of rain

O=C(Sc1nncn1-c1ccccc1)c1cccc([N+](=O)[O-])c1 [Example 130, 3-(3-nitrobenzoylmercapto)-4-phenyl-1,2,4-triazole]
pest or weed control at 280.212 g/ha [1]: 97% | pest or weed control at 1120.85 g/ha [1]: 100%

CCCCn1c(C)nnc1S [Example 89, 3-mercapto-4-n-butyl-5-methyl-1,2,4-triazole]
pest or weed control at 280.212 g/ha [2]: 57% | pest or weed control at 1120.85 g/ha [2]: 80% | pest or weed control at 280.212 g/ha [1]: 26% | pest or weed control at 1120.85 g/ha [1]: 51%

CCCCn1cnnc1SC(=O)c1cccc([N+](=O)[O-])c1 [Example 122, 3-(3-nitrobenzoylmercapto)-4-n-butyl-1,2,4-triazole]
pest or weed control at 280.212 g/ha [2]: 100% | pest or weed control at 1120.85 g/ha [2]: 100% | pest or weed control at 280.212 g/ha [1]: 100% | pest or weed control at 1120.85 g/ha [1]: 100%

CCCCCCCCn1cnnc1S [Example 80, 3-mercapto-4-n-octyl-1,2,4-trizole]
pest or weed control at 280.212 g/ha [2]: 51% | pest or weed control at 1120.85 g/ha [2]: 65% | pest or weed control at 280.212 g/ha [1]: 100% | pest or weed control at 1120.85 g/ha [1]: 100%

CCCCn1cnnc1SC(=O)c1ccc(Br)cc1 [Example 119, 3-(4-bromobenzoylmercapto)-4-n-butyl-1,2,4-triazole]
pest or weed control at 280.212 g/ha [2]: 100% | pest or weed control at 1120.85 g/ha [2]: 100% | pest or weed control at 280.212 g/ha [1]: 100% | pest or weed control at 1120.85 g/ha [1]: 100%

CCCCn1cnnc1SC [Example 102, 3-methylmercapto-4-n-butyl-1,2,4-triazole]
pest or weed control at 280.212 g/ha [2]: 51% | pest or weed control at 1120.85 g/ha [2]: 51% | pest or weed control at 280.212 g/ha [1]: 100% | pest or weed control at 1120.85 g/ha [1]: 100%

Clc1ccc(-n2cnnc2)c(Cl)c1 [Example 56, 4-(2,4-dichlorophenyl)-1,2,4-triazole]
pest or weed control at 280.212 g/ha [2]: 0% | pest or weed control at 1120.85 g/ha [2]: 5% | pest or weed control at 280.212 g/ha [1]: 90% | pest or weed control at 1120.85 g/ha [1]: 65%

CCCCn1c(O)nnc1S [Example 87, 3-mercapto-4-n-butyl-5-hydroxy-1,2,4-triazole]
pest or weed control at 280.212 g/ha [2]: 0% | pest or weed control at 1120.85 g/ha [2]: 0% | pest or weed control at 280.212 g/ha [1]: 15% | pest or weed control at 1120.85 g/ha [1]: 49%

C#CC(C)(C)n1cnnc1 [Example 16, 4-(1,1-dimethylpropargyl)-1,2,4-triazole]
pest or weed control at 280.212 g/ha [2]: 0% | pest or weed control at 1120.85 g/ha [2]: 0% | pest or weed control at 280.212 g/ha [1]: 0% | pest or weed control at 1120.85 g/ha [1]: 0%

CCCCn1cnnc1SCCOc1ccccc1 [Example 109, 3-(2-phenoxyethylmercapto)-4-n-butyl-1,2,4-triazole]
pest or weed control at 280.212 g/ha [2]: 96% | pest or weed control at 1120.85 g/ha [2]: 100% | pest or weed control at 280.212 g/ha [1]: 100% | pest or weed control at 1120.85 g/ha [1]: 100%

c1nc(CCn2cnnc2)c[nH]1 [Example 36, 4-[2-(4-imidazolyl)]-1,2,4-triazole]
pest or weed control at 280.212 g/ha [2]: 0% | pest or weed control at 1120.85 g/ha [2]: 10% | pest or weed control at 280.212 g/ha [1]: 0% | pest or weed control at 1120.85 g/ha [1]: 10%

c1ccc(-n2cnnc2)nc1 [Example 62, 4-(2-pyridyl)-1,2,4-triazole]
pest or weed control at 1120.85 g/ha [2]: 99% | pest or weed control at 280.212 g/ha [1]: 100% | pest or weed control at 1120.85 g/ha [1]: 100%

Cn1c(S)nnc1-c1ccco1 [Example 90, 3-mercapto-4-methyl-5-(2-furyl)-1,2,4-triazole]
pest or weed control at 280.212 g/ha [2]: 80% | pest or weed control at 1120.85 g/ha [2]: 87% | pest or weed control at 280.212 g/ha [1]: 0% | pest or weed control at 1120.85 g/ha [1]: 28%

COc1ccc(-n2cnnc2)cc1 [Example 60, 4-(4-methoxyphenyl)-1,2,4-triazole]
pest or weed control at 280.212 g/ha [2]: 95% | pest or weed control at 1120.85 g/ha [2]: 97% | pest or weed control at 280.212 g/ha [1]: 100% | pest or weed control at 1120.85 g/ha [1]: 100%

COc1ccc(CCn2cnnc2)cc1 [Example 34, 4-(4-methoxyphenethyl)-1,2,4-triazole]
pest or weed control at 280.212 g/ha [2]: 15% | pest or weed control at 1120.85 g/ha [2]: 15% | pest or weed control at 280.212 g/ha [1]: 15% | pest or weed control at 1120.85 g/ha [1]: 25%

c1ccc2sc(-n3cnnc3)nc2c1 [Example 69, 4-(2-benzothiazyl)-1,2,4-triazole]
pest or weed control at 280.212 g/ha [2]: 98% | pest or weed control at 1120.85 g/ha [2]: 98% | pest or weed control at 280.212 g/ha [1]: 100% | pest or weed control at 1120.85 g/ha [1]: 100%

COc1ccc(SCCn2cnnc2)cc1 [Example 32, 4-(2-(4-methoxythiophenoxy)ethyl)-1,2,4-trianzole]
pest or weed control at 280.212 g/ha [2]: 30% | pest or weed control at 1120.85 g/ha [2]: 85% | pest or weed control at 280.212 g/ha [1]: 95% | pest or weed control at 1120.85 g/ha [1]: 99%

CCCCn1cnnc1SC(=O)COC [Example 116, 3-methoxyacetylmercapto-4-n-butyl-1,2,4-triazole]
pest or weed control at 280.212 g/ha [2]: 95% | pest or weed control at 1120.85 g/ha [2]: 99% | pest or weed control at 280.212 g/ha [1]: 100% | pest or weed control at 1120.85 g/ha [1]: 100%

CC(C)OCCCn1cnnc1 [Example 48, 4-(3-isopropoxypropyl)-1,2,4-triazole]
pest or weed control at 280.212 g/ha [2]: 0% | pest or weed control at 1120.85 g/ha [2]: 0% | pest or weed control at 280.212 g/ha [1]: 0% | pest or weed control at 1120.85 g/ha [1]: 0%

CCCCn1cnnc1SC(C)=O [Example 115, 3-acetylmercapto-4-n-butyl-1,2,4-triazole]
pest or weed control at 280.212 g/ha [2]: 90% | pest or weed control at 1120.85 g/ha [2]: 95% | pest or weed control at 280.212 g/ha [1]: 99% | pest or weed control at 1120.85 g/ha [1]: 100%

Cn1cnnc1S [Example 73, 3-mercapto-4-methyl-1,2,4-triazole]
pest or weed control at 280.212 g/ha [2]: 0% | pest or weed control at 1120.85 g/ha [2]: 10% | pest or weed control at 280.212 g/ha [1]: 34% | pest or weed control at 1120.85 g/ha [1]: 50%

Clc1ccc(OCCn2cnnc2)c(Cl)c1 [Example 29, 4-(2-(2,4-dichlorophenoxy)ethyl)-1,2,4-triazole]
pest or weed control at 280.212 g/ha [2]: 0% | pest or weed control at 1120.85 g/ha [2]: 0% | pest or weed control at 280.212 g/ha [1]: 0% | pest or weed control at 1120.85 g/ha [1]: 20%

Sc1nncn1C1CCCCC1 [Example 83, 3-mercapto-4-cyclohexyl-1,2,4-triazole]
pest or weed control at 280.212 g/ha [2]: 100% | pest or weed control at 1120.85 g/ha [2]: 98% | pest or weed control at 280.212 g/ha [1]: 44% | pest or weed control at 1120.85 g/ha [1]: 34%

CCCCCCCCCCn1cnnc1 [Example 12, 4-n-decyl-1,2,4-triazole]
pest or weed control at 280.212 g/ha [2]: 48% | pest or weed control at 1120.85 g/ha [2]: 78% | pest or weed control at 280.212 g/ha [1]: 57% | pest or weed control at 1120.85 g/ha [1]: 100%

CCC(C)n1cnnc1 (stereo not shown) [Example 5, 4-sec-butyl-1,2,4-triazole]
pest or weed control at 280.212 g/ha [2]: 78% | pest or weed control at 1120.85 g/ha [2]: 69% | pest or weed control at 280.212 g/ha [1]: 97% | pest or weed control at 1120.85 g/ha [1]: 99%

CCN(CC)CCn1cnnc1 [Example 35]
pest or weed control at 280.212 g/ha [2]: 0% | pest or weed control at 1120.85 g/ha [2]: 10% | pest or weed control at 280.212 g/ha [1]: 30% | pest or weed control at 1120.85 g/ha [1]: 40%

CCCCn1cnnc1SC(=O)c1ccccc1Br [Example 118, 3-(2-bromobenzoylmercapto)-4-n-butyl-1,2,4-triazole]
pest or weed control at 280.212 g/ha [2]: 100% | pest or weed control at 1120.85 g/ha [2]: 100% | pest or weed control at 280.212 g/ha [1]: 100% | pest or weed control at 1120.85 g/ha [1]: 100%

Clc1ccc(OCCn2cnnc2)cc1 [Example 26]
pest or weed control at 280.212 g/ha [2]: 0% | pest or weed control at 1120.85 g/ha [2]: 0% | pest or weed control at 280.212 g/ha [1]: 0% | pest or weed control at 1120.85 g/ha [1]: 10%

c1csc(-n2cnnc2)n1 [Example 68, 4-(2-thiazyl)-1,2,4-triazole]
pest or weed control at 280.212 g/ha [2]: 67% | pest or weed control at 1120.85 g/ha [2]: 96% | pest or weed control at 280.212 g/ha [1]: 66% | pest or weed control at 1120.85 g/ha [1]: 73%

Clc1cccc(-n2cnnc2)c1 [Example 55, 4-(3-chlorophenyl)-1,2,4-triazole hydrochloride]
pest or weed control at 280.212 g/ha [1]: 100% | pest or weed control at 1120.85 g/ha [1]: 100%

4-(1,3-dihydroxypropyl)-1,2,4-triazole [Example 22]
% Control (with 1" of rain) ([2]; 0.25 lb.): 0% | % Control (with 1" of rain) ([2]; 1 lb.): 0% | % Control (without rain) ([1]; 0.25 lb.): 90% | % Control (without rain) ([1]; 1 lb.): 90%

C=CCOCCSc1nncn1CCCC [Example 108, 3-(2-allyloxyethylmercapto)-4-n-butyl-1,2,4-triazole]
pest or weed control at 280.212 g/ha [2]: 25% | pest or weed control at 1120.85 g/ha [2]: 40% | pest or weed control at 280.212 g/ha [1]: 35% | pest or weed control at 1120.85 g/ha [1]: 85%

COc1ccc(C(=O)Sc2nncn2-c2ccccc2)cc1 [Example 129, 3-(4-methoxybenzoylmercapto)-4-phenyl-1,2,4-triazole]
pest or weed control at 280.212 g/ha [2]: 100% | pest or weed control at 1120.85 g/ha [2]: 99% | pest or weed control at 280.212 g/ha [1]: 100% | pest or weed control at 1120.85 g/ha [1]: 100%

O=[N+]([O-])c1ccc(Sc2nncn2-c2ccccc2)c([N+](=O)[O-])c1 [Example 128, 3-(2,4-dinitrophenylmercapto)-4-phenyl-1,2,4-triazole]
pest or weed control at 280.212 g/ha [2]: 84% | pest or weed control at 1120.85 g/ha [2]: 90% | pest or weed control at 280.212 g/ha [1]: 100% | pest or weed control at 1120.85 g/ha [1]: 100%

CCCCn1c(S)nnc1-c1ccco1 [Example 91, 3-mercapto-4-n-butyl-5-(2-furyl)-1,2,4-triazole]
pest or weed control at 280.212 g/ha [2]: 100% | pest or weed control at 1120.85 g/ha [2]: 100% | pest or weed control at 280.212 g/ha [1]: 41% | pest or weed control at 1120.85 g/ha [1]: 72%

O=[N+]([O-])c1ccc(-n2cnnc2)cc1 [Example 59, 4-(4-nitrophenyl)-1,2,4-triazole]
pest or weed control at 280.212 g/ha [2]: 58% | pest or weed control at 1120.85 g/ha [2]: 79% | pest or weed control at 280.212 g/ha [1]: 97% | pest or weed control at 1120.85 g/ha [1]: 98%

c1nncn1N1CCOCC1 [Example 64, 4-morpholino-1,2,4-triazole]
pest or weed control at 280.212 g/ha [1]: 88% | pest or weed control at 1120.85 g/ha [1]: 94%

c1ccc(CCn2cnnc2)cc1 [Example 33, 4-phenethyl-1,2,4-triazole]
pest or weed control at 280.212 g/ha [1]: 100% | pest or weed control at 1120.85 g/ha [1]: 100%

c1nncn1-n1cnnc1 [Example 65]
pest or weed control at 280.212 g/ha [1]: 64% | pest or weed control at 1120.85 g/ha [1]: 78%
